Blank lines part the entries; values can stand above or below the compound they belong to.
What was measured:
[1] = system: Rat2 fibroblasts stably transformed with v-Src/Hu c-Src fusion gene; assay: Anchorage Independent Src-transformed Fibroblast Proliferation Assay; assay type: cell-based; settings: Rattus norvegicus, src dependent suspension growth, MTS, read-out: Src cells IC50
Src = molecular target: T1, Src (Homo sapiens, UniProt P12931); assay: Src Kinase Assay (ELISA or Delfia format, cdc2 substrate peptide); assay type: biochemical; settings: read-out: Src enzyme IC50
T1 construct: purchased Upstate Biotechnologies, Lake Placid, N.Y

transient focal ischemia [2] = assay: Therapeutic window in transient focal ischemia model; assay type: in vivo, Wistar rats
Description: Therapeutic Window In this model of transient focal ischemia three studies were conducted to examine therapeutic window. Wistar rats were subjected to 90 minute occlusion of the MCA followed by reperfusion as described above. […] Volume of infarcted tissue was measured by histological staining.

permanent focal ischemia [3] = assay: Permanent focal ischemia with extensive infarction to sensorimotor cortex, 21 day neurological assessment; assay type: in vivo, Wistar rats; settings: IV bolus 10 mg/kg at 90 min, 4 hours later, and 24 and 28 hours later (total 40 mg/kg); Day 21
Description: Wistar rats (n=5 per group) were subjected to focal ischemic stroke model that results in a extensive ischemia to the sensorimotor cortex substantially as described by Chen et al., (Stroke 17:738, 1986). […] Results were evaluated by Generalized Regression Model to determine statistical significance of the differences between slopes and to compare final neurological outcome after 21 days. […] Thus, compounds of the present invention provide long-term improvement of neurological deficits.

permanent focal ischemia [4] = assay: Permanent focal ischemia, model of extreme severity (intraluminal suture occlusion of internal carotid artery); assay type: in vivo, rat; settings: relatively short outcome (28 hours)
Description: Permanent Focal Ischemia Example 1 was also evaluated in two rat models of permanent focal ischemia.

transient focal ischemia [5] = assay: IP administration in rat model of transient focal ischemia (90 min MCA occlusion, 48 h reperfusion); assay type: in vivo, Wistar rats; settings: for recovery from stroke-induced neurological deficits: 85 min after onset of ischemia, evaluated over 48 hours
Description: Wistar rats were subjected to a 90 min occlusion of the middle cerebral artery (MCA) using an intraluminal suture approach as described by Longa et al., Stroke 1989, 20:84 followed by reperfusion for 48 hours. […] Following reperfusion, the animals were evaluated over a 48 hour period for neurological function deficit and weight loss/gain. Infarct size was measured following sacrifice at 48 hours post MCA occlusion.

transient focal ischemia [6] = assay: IV administration in rat model of transient focal ischemia (90 min MCA occlusion, 48 h reperfusion); assay type: in vivo, Wistar rats
Description: Following reperfusion, the animals were evaluated over a 48 hour period for neurological function deficit and weight loss/gain. Brain tissue infarction volume by were reduced by 22%, 53% and 42%, respectively. […] Thus, compounds of the present invention provide neuroprotection following focal ischemia.

[7] = system: vascular permeability in the ischemic striatum; assay: Post ischemic vascular permeability (Evans Blue extravasation); assay type: in vivo, Wistar rats; settings: single IV bolus 30 min after onset of ischemia at 3, 10 and 30 mg/kg (dose of the value not stated), 24 hours reperfusion
Description: Post Ischemic Vascular Permeability Wistar rats were subjected to a 90 min occlusion of the middle cerebral artery (MCA) using an intraluminal suture approach as described by Longa et al., Stroke 1989, 20:84 followed by reperfusion for 24 hours. […] Two hours before sacrifice animals received an IV injection of 2% Evans Blue in saline. Brains were perfused with saline and the striatum dissected. Evans Blue was extracted and quantified by spectrofluorometer based on external standards. Vascular permeability in the ischemic striatum was reduced as evidenced by a 60% decrease of Evans Blue extravasation. Thus, compounds of the present invention reduce vascular permeability associated with ischemic injury.

T1 sequence (P12931 whole entry): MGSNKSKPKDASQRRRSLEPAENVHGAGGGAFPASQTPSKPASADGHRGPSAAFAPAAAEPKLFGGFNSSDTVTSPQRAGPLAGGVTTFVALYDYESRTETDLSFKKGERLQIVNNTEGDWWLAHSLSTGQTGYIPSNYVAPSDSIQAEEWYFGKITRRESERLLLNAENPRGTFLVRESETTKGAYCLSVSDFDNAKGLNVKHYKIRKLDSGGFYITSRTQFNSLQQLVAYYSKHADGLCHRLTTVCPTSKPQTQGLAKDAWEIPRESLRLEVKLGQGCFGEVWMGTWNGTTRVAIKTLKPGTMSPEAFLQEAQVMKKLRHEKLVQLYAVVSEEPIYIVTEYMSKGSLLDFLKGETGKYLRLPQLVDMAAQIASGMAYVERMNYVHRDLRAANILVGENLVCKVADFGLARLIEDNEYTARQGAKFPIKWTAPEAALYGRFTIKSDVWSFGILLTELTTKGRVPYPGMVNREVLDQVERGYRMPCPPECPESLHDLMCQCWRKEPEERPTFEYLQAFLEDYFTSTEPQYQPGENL

IC50 (Src): 1.4 nM | melting point: 148 to 151 °C
Compound: CCOc1cc2c(Nc3cc(OC)c(Cl)cc3Cl)c(C#N)cnc2cc1OCCCC1CCN(C)CC1 [Example 12, 4-[(2,4-Dichloro-5-methoxyphenyl)amino]-6-ethoxy-7-[3-(1-methylpiperidin-4-yl)propoxy]quinoline-3-carbonitrile]
IC50 [1]: 96 nM

IC50 (Src): 1.5 nM | melting point: 141 to 143 °C
Compound: CCOc1cc2c(Nc3cc(OC)c(Cl)cc3Cl)c(C#N)cnc2cc1OCCN1CCN(C)CC1 [Example 13, 4-[(2,4-Dichloro-5-methoxyphenyl)amino]-6-ethoxy-7-[2-(4-methyl-1-piperazinyl)ethoxy]quinoline-3-carbonitrile]
IC50 [1]: 146 nM

IC50 (Src): 2.1 nM | melting point: 182 to 186 °C
Compound: CCOc1cc2c(Nc3cc(OC)c(Cl)cc3Cl)c(C#N)cnc2cc1OCC1CCN(C)CC1 [Example 10, 4-[(2,4-Dichloro-5-methoxyphenyl)amino]-6-ethoxy-7-[(1-methylpiperidin-4-yl)methoxy]quinoline-3-carbonitrile]
IC50 [1]: 176 nM

IC50 (Src): 2.1 nM | melting point: 192 to 195 °C
Compound: CCN1CCC(COc2cc3ncc(C#N)c(Nc4cc(OC)c(Cl)cc4Cl)c3cc2OC)CC1 [Example 8, 4-[(2,4-Dichloro-5-methoxyphenyl)amino]-7-[(1-ethylpiperidin-4-yl)methoxy]-6-methoxyquinoline-3-carbonitrile]
IC50 [1]: 170 nM

IC50 (Src): 0.85 nM | melting point: 127 to 130 °C
Compound: CCOc1cc2c(Nc3cc(OC)c(Cl)cc3Cl)c(C#N)cnc2cc1OCCCN1CCN(CC)CC1 [Example 11, 4-[(2,4-Dichloro-5-methoxyphenyl)amino]-6-ethoxy-7-[3-(4-ethylpiperazin-1-yl)propoxy]quinoline-3-carbonitrile]
IC50 [1]: 160 nM

IC50 (Src): 3.6 nM | melting point: 101 to 105 °C
Compound: CCN1CCN(CCOc2cc3ncc(C#N)c(Nc4cc(OC)c(Cl)cc4Cl)c3cc2OC)CC1 [Example 4, 4-[(2,4-Dichloro-5-methoxyphenyl)amino]-7-[2-(4-ethyl-1-piperazinyl)ethoxy]-6-methoxy-3-quinolinecarbonitrile]
IC50 [1]: 600 nM

Compound: COc1cc(Nc2c(C#N)cnc3cc(OCCCN4CCN(C)CC4)c(OC)cc23)c(Cl)cc1Cl [Example 1, 4-[(2,4-Dichloro-5-methoxyphenyl)amino]-6-methoxy-7-[3-(4-methyl-1-piperazinyl)propoxy]-3-quinolinecarbonitrile]
Brain tissue infarction (as a % of vehicle treated) (transient focal ischemia [2]; single 10 mg/kg dose administered between 30 min and 4 hours after the ischemic injury): statistically reduced | protection from neurological deficits (as a percent of vehicle treated) (transient focal ischemia [2]; single 10 mg/kg dose administered up to 5 hours post-stroke): Statistically significant protection | protection from ischemia-induced weight loss (as a % of vehicle treated) (transient focal ischemia [2]; single 10 mg/kg dose up to 5 hours post stroke): statistically significant protection | Behavioral Score (sensorimotor deficits) as compared to a control group (permanent focal ischemia [3]): statistically significant improvement | IC50 [1]: 100 nM | effect in permanent focal ischemia model of extreme severity (permanent focal ischemia [4]): little or no effect | recovery from stroke-induced neurological deficits (transient focal ischemia [5]; 5 mg/kg ip): significantly improved | recovery from stroke-induced neurological deficits (transient focal ischemia [5]; 45 mg/kg ip): significantly improved | volume of infarcted brain tissue, statistical significance of reduction (transient focal ischemia [5]; 45 mg/kg ip, 48 hours post MCA occlusion): statistical significance was achieved | body weight recovery (transient focal ischemia [5]; ip, over 48 hours): Improvement in body weight recovery was observed | volume of infarcted brain tissue (transient focal ischemia [5]; most doses (1.5, 5, 15, or 45 mg/kg ip), 48 hours post MCA occlusion): Reductions in the volume of infarcted brain tissue were observed | Mean Motor Deficit Score at 24 hrs (transient focal ischemia [6]; 3 mg/kg iv): 3.83 ± 0.3 | Mean Motor Deficit Score at 48 hrs (transient focal ischemia [6]; 3 mg/kg iv): 3.25 ± 0.37 | Brain tissue infarction volume reduced by (transient focal ischemia [6]; 3 mg/kg iv, 30 min after MCA occlusion): 22% | Mean Motor Deficit Score at 24 hrs (transient focal ischemia [6]; 10 mg/kg iv): 4.08 ± 0.08 | Mean Motor Deficit Score at 48 hrs (transient focal ischemia [6]; 10 mg/kg iv): 3.67 ± 0.22 | Brain tissue infarction volume reduced by (transient focal ischemia [6]; 10 mg/kg iv, 30 min after MCA occlusion): 53% | Mean Motor Deficit Score at 24 hrs (transient focal ischemia [6]; 30 mg/kg iv): 4.08 ± 0.23 | Mean Motor Deficit Score at 48 hrs (transient focal ischemia [6]; 30 mg/kg iv): 3.67 ± 0.28 | Brain tissue infarction volume reduced by (transient focal ischemia [6]; 30 mg/kg iv, 30 min after MCA occlusion): 42% | stroke-induced neurological deficits (transient focal ischemia [6]; all three doses (3, 10 and 30 mg/kg iv)): significantly reduced | Post-stroke weight loss (transient focal ischemia [6]; iv, 30 min after MCA occlusion): significantly reduced | decrease of Evans Blue extravasation in the ischemic striatum [7]: 60%

IC50 (Src): 1.9 nM | melting point: 174 to 176 °C
Compound: CCOc1cc2c(Nc3cc(OC)c(Cl)cc3Cl)c(C#N)cnc2cc1OCCC1CCN(C)CC1 [Example 14, 4-[(2,4-Dichloro-5-methoxyphenyl)amino]-6-ethoxy-7-[2-(1-methylpiperidin-4-yl)ethoxy]quinoline-3-carbonitrile]
IC50 [1]: 267 nM

IC50 (Src): 4 nM | melting point: 165 to 167 °C
Compound: COc1cc(Nc2c(C#N)cnc3cc(OCCN4CCN(C)CC4)c(OC)cc23)c(Cl)cc1Cl [Example 3, 4-[(2,4-Dichloro-5-methoxyphenyl)amino]-6-methoxy-7-[2-(4-methyl-1-piperazinyl)ethoxy]-3-quinolinecarbonitrile]
IC50 [1]: 380 nM

melting point: 137 to 138 °C
Compound: CCOc1cc2c(Nc3cc(OC)c(Cl)cc3Cl)c(C#N)cnc2cc1OCCCN1CCN(C)CC1 [Example 9, 4-[(2,4-Dichloro-5-methoxyphenyl)amino]-6-ethoxy-7-[3-(4-methylpiperazin-1-yl)propoxy]quinoline-3-carbonitrile]
IC50 [1]: 86 nM

Compound: CCCN1CCN(CCCOc2cc3ncc(C#N)c(Nc4cc(OC)c(Cl)cc4Cl)c3cc2OC)CC1 [Example 15, 4-[(2,4-Dichloro-5-methoxyphenyl)amino]-6-methoxy-7-[3-(4-propyl-1-piperazinyl)propoxy]-3-quinolinecarbonitrile]
IC50 [1]: 160 nM

Compound: CCN1CCN(CCCOc2cc3ncc(C#N)c(Nc4cc(OC)c(Cl)cc4Cl)c3cc2OC)CC1 [Example 2, 4-[(2,4-Dichloro-5-methoxyphenyl)amino]-7-[3-(4-ethyl-1-piperazinyl)propoxy]-6-methoxy-3-quinolinecarbonitrile]
IC50 [1]: 130 nM

From patent US20040229880A1, “4-[(2,4-dichloro-5-methoxyphenyl)amino]-6-alkoxy-3-quinolinecarbonitriles for the treatment of ischemic injury” (Wyeth, priority 2003, published 2004)
